What was measured:
AADC [1] = target: T1, AADC (Sus scrofa, UniProt P80041); assay: In vitro AADC inhibition: time of 90% inactivation (14CO2 trapping, DL-[1-14C]-dopa substrate); assay type: biochemical, hog; set-up: key to RATING: ++++: The relative activities of the compounds are rated by the given number of "plus" signs; +++: The relative activities of the compounds are rated by the given number of "plus" signs; 0-+: The relative activities of the compounds are rated by the given number of "plus" signs; conditions: for TIME OF 90% INACTIVATION: pH 7.4, 37° C.; for RATING: relative activity
T1 sequence (P80041 1-486): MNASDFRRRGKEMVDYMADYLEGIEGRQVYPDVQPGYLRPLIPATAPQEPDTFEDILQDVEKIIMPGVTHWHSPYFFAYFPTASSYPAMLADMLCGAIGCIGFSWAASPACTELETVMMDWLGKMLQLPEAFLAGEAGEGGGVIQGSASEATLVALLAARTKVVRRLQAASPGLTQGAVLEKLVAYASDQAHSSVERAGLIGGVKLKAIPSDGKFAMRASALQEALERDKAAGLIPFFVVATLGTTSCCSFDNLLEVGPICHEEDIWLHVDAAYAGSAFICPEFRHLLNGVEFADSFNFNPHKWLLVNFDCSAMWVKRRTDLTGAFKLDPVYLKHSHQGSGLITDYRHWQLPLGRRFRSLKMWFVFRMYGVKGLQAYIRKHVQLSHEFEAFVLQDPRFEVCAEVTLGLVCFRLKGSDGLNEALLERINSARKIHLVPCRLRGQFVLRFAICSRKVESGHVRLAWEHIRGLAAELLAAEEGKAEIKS
Method: AADC can be purified from hog kidney by the general method of J. Christenson et al. Archs. Biochem. Biophys., 141, 356 (1970) and G. Lancaster et al., Can. J. Biochem., 50, 791 (1972), and the specific activity of the enzyme is determined by the ^14 CO2 trapping method using DL-[1-^14 C]-dopa as the substrate (see Christenson et al.). One unit of activity is defined as the total amount of enzyme which produces 1 n mol of CO2 per minute, with DL-[1-^14 C]-dopa as substrate.
To 100 μl of 50 mM-phosphate buffer pH 7.4 containing 100 mM-mercapto-ethanol are added 5 μl of an aqueous solution containing the test compound at the desired concentration and 50 μl of an aqueous solution containing 2 units of AADC. The mixture is incubated at 37° C. and 20 μl aliquots are removed at various times. The AADC activity remaining in each aliquot is measured by the CO2 trapping method of Christenson.
The relative activities of the compounds are rated by the given number of "plus" signs.

AADC [2] = assay: Ex vivo AADC activity in organs of mice after repeated i.p. doses (Table II); set-up: species or system mice (Swiss Albino); conditions: three days, 12 h after 6th dose, vs control
Method: (§1) The test animals (e.g. mice or rats) are given the test compound in a suitable vehicle, either orally or by injection, each day over the period of time desired. The animals are kept on a constant time cycle, and body weights are measured daily. The animals are sacrificed by decapitation 12 to 24 hours after receiving the last dose of the test compound. Control animals receive the vehicle alone.
(§2) Immediately after death, the organs (brain, heart, and kidney) are removed and homogenized either in 50 ml phosphate buffer pH 6.8 for AADC determination or in ice-cold 0.4 M HClO4 containing 0.05% (w/v) EDTA and 0.1% (w/v) sodium bisulfite for catecholamine determination. AADC activity is determined by the ^14 CO2 trapping method of J. Christenson, supra (see Example 14) using DL-[1-^14 C]-dopa as the substrate. Catecholamines are determined by centrifuging the homogenate, adding the supernatant to alumina buffered to pH 8.0-8.4 to adsorb the catecholamines, re-extracting the catecholamines from the alumina with 0.2 M HClO4 and determining the catecholamines in the extracts using known procedures, such as by reversed-phase ion-pair HPLC with electrochemical detection.
(§3) Table II, shown below, sets forth the results obtained by testing particular compounds of Formula I in the above-described procedure in mice (Swiss Albino) after i.p. administration of the compound twice daily for three days: […]

[3] = test system: catecholamine content (norepinephrine, dopamine); assay: Catecholamine content in organs of mice after repeated i.p. doses (Table II); assay type: in vivo, mice (Swiss Albino); conditions: three days, 12 h after 6th dose, vs control
Method: as §1, §2, §3

[4] = test system: catecholamine content (norepinephrine, dopamine); assay: Catecholamine content in organs of rats after oral administration once daily for 15 days (Table III); assay type: in vivo, rats (Sprague-Dawley); conditions: 24 h after 15th dose, vs control; for % CHANGE Brain Dopamine: * not significant
Method: as §1, §2
Table III gives the results obtained by testing particular compounds of Formula I in rats (Sprague-Dawley) after oral administration of the test compound once daily for 15 days. AADC activity was not determined.

[5] = Deaths in mice after repeated i.p. doses (Table II footnotes); assay type: in vivo, mice (Swiss Albino); conditions: 100 mg/kg i.p. twice daily, three days; number dead of animals
Method: as §1, §3

[6] = 10 mg/kg i.p. twice daily, * not significant
[7] = 10 mg/kg i.p. twice daily, * not significant (-25*, -7*)
[8] = 10 mg/kg i.p. twice daily, * not significant (-25*, -9*)
[9] = 100 mg/kg i.p. twice daily, * not significant (-35*)
[10] = 10 mg/kg oral once daily 15 days
[11] = 20 mg/kg oral once daily 15 days
[12] = 30 mg/kg oral once daily 15 days

SMILES | TIME OF 90% INACTIVATION (AADC [1]; CONC. 10 μM) [min] | RATING (AADC [1]; CONC. 10 μM) | % CHANGE AADC Brain (AADC [2]; 10 mg/kg i.p. twice daily) [%] | % CHANGE AADC Kidney (AADC [2]; 10 mg/kg i.p. twice daily) [%] | % CHANGE AADC Brain (AADC [2]; 100 mg/kg i.p. twice daily) [%] | % CHANGE AADC Kidney (AADC [2]; 100 mg/kg i.p. twice daily) [%] | % CHANGE NOREPINEPHRINE Brain [3, 6] [%] | % CHANGE NOREPINEPHRINE Heart [3, 7] [%] | % CHANGE DOPAMINE Brain [3, 8] [%] | % CHANGE NOREPINEPHRINE Brain ([3]; 100 mg/kg i.p. twice daily) [%] | % CHANGE NOREPINEPHRINE Heart ([3]; 100 mg/kg i.p. twice daily) [%] | % CHANGE DOPAMINE Brain [3, 9] [%] | % CHANGE Brain Norepinephrine [4, 10] [%] | % CHANGE Heart Norepinephrine [4, 10] [%] | % CHANGE Brain Dopamine [4, 10] [%] | % CHANGE Brain Norepinephrine [4, 11] [%] | % CHANGE Heart Norepinephrine [4, 11] [%] | % CHANGE Brain Dopamine [4, 11] | % CHANGE Brain Norepinephrine [4, 12] [%] | % CHANGE Heart Norepinephrine [4, 12] [%] | other results
NC(CF)(Cc1cccc(O)c1O)C(=O)O (stereo not shown) [2,3-diOH-phenyl, 2-Amino-2-fluoromethyl-3-(2,3-dihydroxyphenyl)propionic acid] | 1 to 2 | ++++ | -73 | -90 | -99 | -90 | -33 | -33 | -25 | -90 | -90 | -93 | -11 | -38 | 0 | -17 | -48 | +3% | -27 | -79 | % CHANGE Brain Dopamine [4, 12]: -10%
NC(CF)(Cc1cc(O)ccc1O)C(=O)O (stereo not shown) [2,5-diOH-phenyl, 2-Amino-2-fluoromethyl-3-(2,5-dihydroxyphenyl)propionic acid] | 3 | ++++ | -58 | -78 | -99 | -87 | 0 | -25 | 0 | -90 | -76 | 90 | -16 | -31 | -1 | -32 | -38 | -2% | -37 | -53 | % CHANGE Brain Dopamine [4, 12]: -5%
Cc1cccc(CC(N)(CF)C(=O)O)c1O (stereo not shown) [2-OH3-methyl phenyl, 2-Amino-2-fluoromethyl-3-(2-hydroxy-3-methylphenyl)propionic acid] |  |  | -52 | -84 | -94 | -98 | -27 | -41 | -20 | -47 | -68 | -24 |  |  |  |  |  |  |  |  | TIME OF 90% INACTIVATION (AADC [1]; CONC. 100 μM): 1 min; RATING (AADC [1]; CONC. 100 μM): +++; dead [5]: 1/5
